Molecules are shown by their SMILES. pIC50: −log10 of the molar value. Several values for one entry are separate records, joined by “and”; a condition that tells them apart may be missing. Identical values can stand only once.

For experiment [1], the system named is MMP-2 production and secretion by PC-3 ML cells. The note with it: in vitro and in vivo; cited from earlier work.
The test system of a further experiment is LP-1 cells. Nature of the experiment: Analysis of cell cycle, propidium iodide flow cytometry. The experiment is classed as cell-based, human. The settings on record: LP-1, 5×10^−4 Mol/L, 4 day incubation; control 36%. As for the experimental part:
LP-1 cells (2×10^5 cells) plated in a 24 well-plate are incubated in the presence of 5×10^−4 Mol/L of either pamidronate or zoledronate. A control without bisphosphonate is performed. Cells are recovered after a 4day incubation period and washed. They are then incubated for 40 minutes at 37° C. with a solution of Triton×100 0.1%, Sodium Citrate 0.1%, 5 IU of RNAse and stained with propidium iodide (PI) 50 mg/L: Flow cytometry analysis is performed on a FACSCalibur using a CELLQuest program (Becton Dickinson). Data are gated on the F12-Area venus FL2-Width cytogram to exclude doublets and agregates, and a minimum of 2.5×10^4 gated cells is collected per sample. Analysis of the cell cycle was performed using the Modfit LT for Mac V2.01 program (Verity Software House, Inc). Apoptotic cells were detected as a subdiploid peak as described by Zamai et al. (1993, Cytometry 14: 891-897)

The test system of experiment [2] is IL-1β-induced MMP-1 secretion by BMSC. The experiment is described as follows: Determination of interstitial collagenase (MMP-1) levels by ELISA. Type of experiment: cell-based, human. The settings on record: IL-1β (10 ng/ml) stimulated, 48 h, mean ± SD. As for the experimental part:
(§1) BMSC are obtained from 7 patients with MM after long term culture of bone marrow samples. Bone marrow mononuclear cells are isolated by Ficoll-Hypaque density centrifugation. The cells are plated in DMEM supplemented with 10% FCS and allowed to attach for 3 days, after which the medium is renewed. After 2 to 3 weeks of culture, a confluent adherent cell monolayer is obtained and then, after two passages using trypsin/ETA solution, BMSC are recovered for study. Cells are maintained in DMEM supplemented with 10% FCS, 2 mmol/L glutamine, 100 μg/mL streptomycin, 100 U/mL penicillin, and 5. 10^−5 mol/L 2-β-mercaptoethanol.
Adherent BMSC (15×10^3 cells) plated in 96-well plates are preincubated for 24 hours with either pamidronate or zoledronate. Then the cells are stimulated by IL-1β (10 ng/ml) in the presence of different concentrations (10^−6, 10^−7, 10^−8 and 10^−9 Mol/L) of each bisphosphonate without FCS. After a 48-hour incubation period, supernatants are collected and stored at −20° C. until analysis. MMP-1 levels are measured by ELISA (Amersham, Les Ulis, France). This assay measures MMP-1 irrespective of its mode of presentation (i.e. free or bound, active or not).

For another experiment, the system named is MMP-2 secretion by BMSC. Nature of the experiment: Determination of gelatinase A (MMP-2) levels by gelatin substrate gel zymography. The settings on record: 48 h. Type of experiment: cell-based, human. As for the experimental part: as §1
Adherent BMSC (10^4 cells) plated in 96-well plates are preincubated for 24 hours with either pamidronate or zoledronate. Then the medium is replaced by a fresh one without FCS but in the presence of different concentrations (10^−6, 10^−7, 10^−8, 10^−9 Mol/L) of each bisphosphonate. After a 48-hour incubation period, the supernatants are collected and stored at −20° C. until analysis. MMP-2 production is shown by gelatin substrate gel zymography. The supernatants are mixed with sodium dodecyl sulfate (SDS) sample buffer without reducing agent and then, proteins are separated by SDS-polyacrylamide gel electrophoresis in 7.5% polyacrylamide gels containing gelatin at 1 mg/ml, as previously described by Heussen and Dowdle(1980 Ann. Biochem. 102: 196-202) and adjusted for minigel format. After electrophoresis, SDS is removed from the gels by an incubation in 2.5% Triton X-100 for half an hour at room temperature. The gels are then incubated at 37° C. in a buffer containing 50 mM/L Tris-HCl 5 mM/L CaCl2, pH 7.6 for 24 hours. The gels were stained with Coomassie blue R250 (0.25%). […] The intensity of the gelatinolytic bands is analysed by densitometry. No interference between bisphosphonates and gelatin substrate gel zymography is observed using this assay (data not shown).

In another experiment the test system is LP-1. The experiment is described as follows: Proliferation of HMCL, [3H]-thymidine incorporation. Type of experiment: cell-based, human. The settings on record: for pIC50: Homo sapiens, LP-1, 72 h, 3 days. As for the experimental part: (§2) The human myeloma cell lines (HMCL) LP-1 and OPM-2 were obtained from DSM (Braunschweig, Germany). JJN-3 was kindly provided by B Van Campo (VUB, Belgium). Cells are maintained in RPMI 1640 culture medium supplemented with 10% fetal calf serum (FCS), 2mM glutamine, antibiotics (100 IU/ml penicillin and 100 μg/ml streptomycin) and 10 μM 2-β-mercaptoethanol.
(§3) The three HMCL are studied Le., LP-1, OPM-2 and JJN-3. Proliferation assays are performed in 96-well round-bottom microtiter plates at a cell density of 10^5 cells/mL. Cells are incubated for 3 days at 37° C. in a 5% CO2 humidified atmosphere with or without recombinant human IL-6 (rhIL-6) at 5 ng/ml, in the presence (or not) of the bisphosphonate of interest. Then, […] of […] is added during the last 18 hours. [^3H]-thymidine, incorporation is quantified by liquid scintillation spectroscopy.

Another experiment has as its system OPM-2. The experiment is described as above. Type of experiment: cell-based, human. The settings on record: for pIC50: Homo sapiens, OPM-2, 72 h, 3 days. Here is the method:
as §2, §3

Another experiment has as its system JJN-3. The description is as above. Type of experiment: cell-based, human. The note with it: for concentration at which proliferation returns to the level of the control: JJN-3. Here is the method: as §2, §3
In experiment [3] the test system is constitutive production of IL-6 by BMSC. The experiment is described as follows: Determination of IL-6 concentrations by ELISA. The experiment is classed as cell-based, human. The settings on record: 48 h. Here is the method: as §1
Adherent BMSC (10^4 cells) plated in 96-well plates are preincubated for 24 hours with either pamidronate or zoledronate. The medium is replaced by a fresh one containing 2% FCS and different concentrations of each bisphosphonate: 10^−6, 10^−7, 10^−8, 10^−9, 10^−10, 10^−11 Mol/L of zoledronate and 10^−6, 10^−7, 10^−8, 10^−9, 10^−10 Mol/L of pamidronate respectively. After a 48-hour incubation period, the supernatants are collected and stored at −20° C. until analysis. L6 A production is measured by ELISA (ELISA test concentrations ranging from 10 to 500 pg/mL) (Innotest, Besancon, France). No interference between the bisphosphonates and ELISA is observed in this study (data not shown). Six of the seven BMSC are tested for production of IL-6 in the presence of bisphosphonates.

A further experiment has as its system BMSC. The experiment is described as follows: Survival experiments, BMSC apoptosis by APO 2.7 flow cytometry. The experiment is classed as cell-based, human. The note with it: 10^−4 mol/L, 3-day incubation. Here is the method:
as §1
Adherent BMSC (3×10^5 cells) are plated in 25 cm^2 flasks and are incubated with either pamidronate (APD) or zoledronate, at the following concentrations: 10^−4 and 10^−5 mol/L. A control without bisphosphonate is performed After a 3-day incubation period, cells are washed with PBS and removed from the flasks using trypsin-EDTA for 20 seconds. The percentage of apoptotic cells is determined by flow cytometry using APO 2.7 mAb (Immunotech, Marseilles, France) (ibid.).

Experiment [4] deals with human myeloma cell lines (HMCL) LP-1, OPM-2 and JJN-3. Nature of the experiment: Proliferation of HMCL, [3H]-thymidine incorporation (three cell lines together). The experiment is classed as cell-based. The note with it: for inhibition at 500 µM: Homo sapiens, 72 h, all the HMCL. Here is the method:
as §2, §3

Experiment [5] has as its system human PC-3 ML prostatic cancer subclones. The settings on record: pretreatment of SCID mice; cited from earlier work.
The test system of experiment [6] is human estrogen-independent breast cancer MDA-231 cells. The settings on record: nontransfected MDA-231 cells, daily subcutaneous administration; cited from earlier work.

Turning to `CC(=O)O[C@H]1C(=O)[C@@]2(C)[C@H]([C@H](OC(=O)c3ccccc3)[C@]3(O)C[C@H](OC(=O)[C@H](O)[C@@H](NC(=O)c4ccccc4)c4ccccc4)C(C)=C1C3(C)C)[C@]1(OC(C)=O)CO[C@@H]1C[C@@H]2O` [taxol], the “production and secretion of MMP-2 by PC-3 ML cells” value in experiment [1] is listed as “independently reduced, in part”.
For `O=P(O)(O)C(O)(Cn1ccnc1)P(=O)(O)O` [zoledronate, (1-hydroxy-2-(1H-imidazole-1-yl)ethylidene) bisphosphonate], the “percentage of cells in S phase” value in the experiment on LP-1 cells came to 60%. For the same compound, the “inhibition of MMP-1 secretion by BMSC” value in experiment [2] was 44%±14%. For the same compound, the “MMP-2 upregulation (72 kDa gelatinase activity, densitometry)” value with MMP-2 secretion by BMSC (10^−6 mol/L) is 180%±12% and 205%±7%; in the experiment with MMP-2 secretion by BMSC (10^−9 mol/L), 159%±16%. Besides, the pIC50 in the experiment on LP-1 was 3.71; in the experiment on OPM-2 it was 3.81. In addition, the “concentration at which normal proliferation rate is recovered” value in the experiment on LP-1 (LP-1) and with OPM-2 (OPM-2) was 5e-05 mol/L in each case. Also, the “concentration at which proliferation returns to the level of the control” value in the experiment on JJN-3 was 1e-05 mol/L. For the same compound, in experiment [3] (BMSC), the “concentration at which IL-6 production returns to the basal level” value is on record as 10^−9 mol/L. For the same compound, the inhibition at 1 µM in [3] (Homo sapiens, BMSC, 10^−6 mol/L, p=0.05, read-out: maximum inhibition of IL-6 production by BMSC) is 60%. Further, the “APO 2.7 stained (apoptotic) BMSC” value with BMSC is listed as 24%. In experiment [4] (5×10^−4 Mol/L, 3 days), this compound showed an inhibition at 500 µM of roughly 95%.
`NCCCC(O)(P(=O)(O)O)P(=O)(O)O` [alendronate, 4-amino-1-hydroxybutane-1,1-diphosphonic acid]: the “production and secretion of MMP-2 by PC-3 ML cells” value in experiment [1] was “independently reduced, in part”. In addition, the “establishment of bone metastases” value in experiment [5] is on record as “partially blocked”.
For `NCCC(O)(P(=O)(O)O)P(=O)(O)O` [pamidronate, (3-amino-1-hydroxypropylidene) bis-phosphonate], the “inhibition of MMP-1 secretion by BMSC” value in experiment [2] is reported as 21%±20%. The “MMP-2 upregulation (72 kDa gelatinase activity, densitometry)” value with MMP-2 secretion by BMSC (10^−6 mol/L) is 165%±27%. Further, the pIC50 in the experiment on LP-1 was 3.68; in the experiment on OPM-2, 3.53; in the experiment with JJN-3 (Homo sapiens, JJN-3, 72 h, 3 days), 3.97. Moreover, the “concentration at which proliferation returns to the level of the control” value with JJN-3 is 1e-05 mol/L. In experiment [3] (BMSC), the “concentration at which IL-6 production returns to the basal level” value is listed as 10^−11 mol/L. Moreover, in [3] (not proportional to dose, six BMSC samples, p=0.05), the “inhibition of IL-6 production by BMSC” value was 40%±14%. Besides, the “APO 2.7 stained (apoptotic) BMSC” value in the experiment with BMSC is reported as 97%. In addition, the “percentage of proliferation, of that of the control” value in [4] (5×10^−4 Mol/L, the three cell lines, 3 days) was determined as 25%. Besides, testing at 500 µM in experiment [4] (5×10^−4 Mol/L, 3 days) gave an inhibition of 75%. Moreover, in experiment [4] (except for JJN-3), the “concentration up to which dose-dependent inhibition of proliferation is observed” value was 5e-05 mol/L.
On to `CCCCCN(C)CCC(O)(P(=O)(O)O)P(=O)(O)O` [ibandronate, 1-hydroxy-3-(methylpentylamino)-propylidene-bisphosphonic acid], for which the “osteolytic lesions in bone (radiographs)” value in experiment [6] is on record as “markedly decreased”.

Values taken from patent publication US20020061866A1, “Pharmaceutical compositions comprising in combination a bisphosphonate and a matrix metalloproteinase inhibitor” (priority 1999, published 2002).
